Experimental data taken from article PMC7310027, “PET imaging of soluble epoxide hydrolase in non-human primate brain with [^18F]FNDP” (EJNMMI Research, 2020).
Read-outs that look alike come from different tables or passages of the source.

Tests used:
[1] = system: soluble epoxide hydrolase (sEH); assay: Baboon [^18F]FNDP dynamic PET, baseline scans with kinetic modelling (2TCM, 1TCM, Logan); type: in vivo, baboon (Papio anubis)
Protocol: (§1) PET images were acquired using a CPS/CTI high-resolution research tomograph (HRRT), which has an axial resolution (FWHM) of 2.4 mm and in-plane resolution of 2.4–2.8 mm. […] These blocking studies were performed 27 to 43 days apart from each other to ensure full animal recovery. The animals had no food for 12 h prior to each PET study. Anesthesia was induced with intramuscular ketamine (7.5–10 mg/kg) and maintained with a continuous intravenous infusion of propofol at 0.3–0.4 mg/kg/min throughout the PET experiment. One venous catheter was inserted for the radioligand injection, and one arterial catheter was inserted to obtain arterial blood samples. Baboons were intubated to facilitate respiration, and circulatory volume was maintained by constant infusion of isotonic saline. Physiological vital signs including heart rate, blood pressure, electrocardiogram, and oxygen saturation were monitored continuously throughout the study.
(§2) The animals were positioned in the PET scanner with the head immobilized using a thermoplastic mask. A 6-min transmission scan was acquired using a rotating ^137Cesium source for generating attenuation maps. The 90-min dynamic PET acquisition was then started in three-dimensional list mode simultaneously with an intravenous bolus injection of [^18F]FNDP. […]
(§3) Measurement of the arterial plasma input function was conducted through collection of ~ 40 blood samples over the course of the 90-min dynamic PET study. […] Samples were then centrifuged at 1200 × g, and the plasma radioactivity was measured with a cross-calibrated PerkinElmer Wizard 2480 automatic gamma counter.
(§4) The 90 min of PET data were binned into 30 frames: four 15-s, four 30-s, three 1-min, two 2-min, five 4 -min, and 12 5-min frames. Images were reconstructed using the 3D iterative ordered subset expectation maximization (OS-EM) algorithm (with six iterations and 16 subsets) with correction for radioactive decay, deadtime, attenuation, scatter, and randoms. The reconstructed image space consisted of cubic voxels, each 1.22 mm^3 in size, and spanning dimensions of 31 cm × 31 cm (transaxially) and 25 cm (axially).
(§5) The software package PMOD (v3.7, PMOD Technologies Ltd, Zurich, Switzerland) was used for the image processing and subsequent kinetic analysis. The previously acquired T1-weighted brain MRI images for the baboon were co-registered to the reconstructed dynamic PET images acquired in this study. Through manually matching the co-registered MRI to the INIA19 Template and NeuroMaps Atlas for Primate Brain Image Parcellation and Spatial Normalization, 13 representative baboon brain volumes of interest (VOIs) were defined, […] Regional time activity curves (TACs) were then generated for both baseline and blocking PET scans using those VOIs.
(§6) Next, kinetic modeling was performed based on the TACs and the metabolite-corrected arterial plasma input functions. For brain uptake, the primary outcome measure was the regional brain distribution volume (VT) of [^18F]FNDP, defined as concentration of the radiotracer in regional tissue relative to that in blood at equilibrium. We evaluated which compartmental models (e.g., two-tissue-three-compartment (2TCM) or one-tissue-two-compartment (1TCM)) best described the [^18F]FNDP PET data, using statistical model selection criteria, such as the Akaike information criterion. For comparison, the Logan graphical method (t* = 30 min) was also used to compute regional VT, as well as generating voxel-wise parametric images of VT [31].

[2] = as above; type: in vivo, baboon (Papio anubis); conditions: male, baboon (Papio anubis), intravenous, baseline, mean ± SD of 3 baboons
Protocol: as §1, §2, §3, §4, §5, §6

[3] = Amygdala, baseline, mean ± SD of 3 baboons
[4] = Caudate, baseline, mean ± SD of 3 baboons
[5] = Cerebellum, baseline, mean ± SD of 3 baboons
[6] = Corpus callosum, baseline, mean ± SD of 3 baboons
[7] = Frontal gyrus, baseline, mean ± SD of 3 baboons
[8] = Globus pallidus, baseline, mean ± SD of 3 baboons
[9] = Hippocampus, baseline, mean ± SD of 3 baboons
[10] = Hypothalamus, baseline, mean ± SD of 3 baboons
[11] = Insula, baseline, mean ± SD of 3 baboons
[12] = Occipital cortex, baseline, mean ± SD of 3 baboons
[13] = Putamen, baseline, mean ± SD of 3 baboons
[14] = Temporal gyrus, baseline, mean ± SD of 3 baboons
[15] = Thalamus, baseline, mean ± SD of 3 baboons
[16] = White matter, baseline, mean ± SD of 3 baboons

O=C(NCCC(c1ccccc1)c1ccccc1)c1ccc([18F])nc1 [[^18F]FNDP, N-(3,3-diphenylpropyl)-6-^18F-fluoronicotinamide]
1TCM K1 [1, 3]: 0.14 ± 0.03 mL/cm^3/min
2TCM K1 [1, 3]: 0.14 ± 0.03 mL/cm^3/min
1TCM K1 [1, 4]: 0.21 ± 0.05 mL/cm^3/min
2TCM K1 [1, 4]: 0.21 ± 0.05 mL/cm^3/min
1TCM K1 [1, 5]: 0.18 ± 0.03 mL/cm^3/min
2TCM K1 [1, 5]: 0.19 ± 0.03 mL/cm^3/min
1TCM K1 [1, 6]: 0.15 ± 0.03 mL/cm^3/min
2TCM K1 [1, 6]: 0.17 ± 0.03 mL/cm^3/min
1TCM K1 [1, 7]: 0.16 ± 0.04 mL/cm^3/min
2TCM K1 [1, 7]: 0.18 ± 0.04 mL/cm^3/min
1TCM K1 [1, 8]: 0.17 ± 0.03 mL/cm^3/min
2TCM K1 [1, 8]: 0.19 ± 0.03 mL/cm^3/min
1TCM K1 [1, 9]: 0.14 ± 0.03 mL/cm^3/min
2TCM K1 [1, 9]: 0.15 ± 0.04 mL/cm^3/min
1TCM K1 [1, 10]: 0.14 ± 0.03 mL/cm^3/min
2TCM K1 [1, 10]: 0.15 ± 0.03 mL/cm^3/min
1TCM K1 [1, 11]: 0.20 ± 0.05 mL/cm^3/min
2TCM K1 [1, 11]: 0.22 ± 0.05 mL/cm^3/min
1TCM K1 [1, 12]: 0.17 ± 0.06 mL/cm^3/min
2TCM K1 [1, 12]: 0.18 ± 0.06 mL/cm^3/min
1TCM K1 [1, 13]: 0.22 ± 0.05 mL/cm^3/min
2TCM K1 [1, 13]: 0.23 ± 0.05 mL/cm^3/min
1TCM K1 [1, 14]: 0.16 ± 0.03 mL/cm^3/min
2TCM K1 [1, 14]: 0.17 ± 0.03 mL/cm^3/min
1TCM K1 [1, 15]: 0.16 ± 0.03 mL/cm^3/min
2TCM K1 [1, 15]: 0.17 ± 0.03 mL/cm^3/min
1TCM K1 [1, 16]: 0.17 ± 0.04 mL/cm^3/min
2TCM K1 [1, 16]: 0.18 ± 0.04 mL/cm^3/min
time of peak of regional brain TACs post-injection ([1]; all regions at baseline): < 15 min
K1 (2TCM) ([1]; baseline scan, Baboon3): 0.151 ± 0.021 mL/cm^3/min
Kp ([1]; male, baboon (Papio anubis), brain (cerebellum), intravenous, Cerebellum, baseline, mean ± SD of 3 baboons, read-out: 1TCM VT): 7.33 ± 0.45
Kp ([1]; male, baboon (Papio anubis), brain (cerebellum), intravenous, Cerebellum, baseline, mean ± SD of 3 baboons, read-out: 2TCM VT): 7.66 ± 0.72
Kp ([1]; male, baboon (Papio anubis), brain (globus pallidus), intravenous, Globus pallidus, baseline, mean ± SD of 3 baboons, read-out: 1TCM VT): 9.07 ± 0.66
Kp ([1]; male, baboon (Papio anubis), brain (globus pallidus), intravenous, Globus pallidus, baseline, mean ± SD of 3 baboons, read-out: 2TCM VT): 9.74 ± 1.02
Kp ([1]; male, baboon (Papio anubis), brain (globus pallidus), intravenous, Globus pallidus, baseline, mean ± SD of 3 baboons, read-out: Logan VT): 9.44 ± 0.92
Kp ([1]; male, baboon (Papio anubis), brain (occipital cortex), intravenous, Occipital cortex, baseline, mean ± SD of 3 baboons, read-out: 1TCM VT): 7.39 ± 1.56
Kp ([1]; male, baboon (Papio anubis), brain (occipital cortex), intravenous, Occipital cortex, baseline, mean ± SD of 3 baboons, read-out: 2TCM VT): 7.82 ± 1.82
Kp ([1]; male, baboon (Papio anubis), brain (occipital cortex), intravenous, Occipital cortex, baseline, mean ± SD of 3 baboons, read-out: Logan VT): 7.67 ± 1.63
total distribution volume (VT, Logan) ([1]; male, baboon (Papio anubis), brain (range over regions), intravenous, baseline, 3 baboons): 7.63 to 13.3
Kp ([1]; male, baboon (Papio anubis), brain (white matter), intravenous, White matter, baseline, mean ± SD of 3 baboons, read-out: 1TCM VT): 8.43 ± 0.89
Kp ([1]; male, baboon (Papio anubis), brain (white matter), intravenous, White matter, baseline, mean ± SD of 3 baboons, read-out: 2TCM VT): 9.29 ± 1.08
Kp ([1]; male, baboon (Papio anubis), brain (white matter), intravenous, White matter, baseline, mean ± SD of 3 baboons, read-out: Logan VT): 9 ± 1.03
Kp ([1]; male, baboon (Papio anubis), brain, corpus callosum, intravenous, Corpus callosum, baseline, mean ± SD of 3 baboons, read-out: 1TCM VT): 8.32 ± 0.91
Kp ([1]; male, baboon (Papio anubis), brain, corpus callosum, intravenous, Corpus callosum, baseline, mean ± SD of 3 baboons, read-out: 2TCM VT): 9.28 ± 0.9
Kp ([1]; male, baboon (Papio anubis), brain, corpus callosum, intravenous, Corpus callosum, baseline, mean ± SD of 3 baboons, read-out: Logan VT): 9.06 ± 0.99
Kp ([1]; male, baboon (Papio anubis), brain, frontal gyrus, intravenous, Frontal gyrus, baseline, mean ± SD of 3 baboons, read-out: 1TCM VT): 9.58 ± 0.6
Kp ([1]; male, baboon (Papio anubis), brain, frontal gyrus, intravenous, Frontal gyrus, baseline, mean ± SD of 3 baboons, read-out: 2TCM VT): 10.5 ± 1.01
Kp ([1]; male, baboon (Papio anubis), brain, frontal gyrus, intravenous, Frontal gyrus, baseline, mean ± SD of 3 baboons, read-out: Logan VT): 10.3 ± 0.91
Kp ([1]; male, baboon (Papio anubis), brain, intravenous, baboon brain, baseline, read-out: baseline VT): 10.9 ± 2.4
Kp ([1]; male, baboon (Papio anubis), brain, temporal gyrus, intravenous, Temporal gyrus, baseline, mean ± SD of 3 baboons, read-out: Logan VT): 9.52 ± 0.57
Kp ([2]; brain: amygdala, Amygdala, read-out: 1TCM VT): 10.5 ± 0.81
Kp ([2]; brain: amygdala, Amygdala, read-out: 2TCM VT): 12.5 ± 2.47
Kp ([2]; brain: amygdala, Amygdala, read-out: Logan VT): 12 ± 1.63
Kp ([2]; brain: caudate, Caudate, read-out: 1TCM VT): 12.9 ± 1.44
Kp ([2]; brain: caudate, Caudate, read-out: 2TCM VT): 13.9 ± 2.28
Kp ([2]; brain: caudate, Caudate, read-out: Logan VT): 13.3 ± 1.94
Kp ([2]; brain: cerebellum, Cerebellum, read-out: Logan VT): 7.63 ± 0.58
Kp ([2]; brain: hippocampus, Hippocampus, read-out: 1TCM VT): 10.3 ± 1.55
Kp ([2]; brain: hippocampus, Hippocampus, read-out: 2TCM VT): 11.5 ± 2.61
Kp ([2]; brain: hippocampus, Hippocampus, read-out: Logan VT): 11 ± 1.96
Kp ([2]; brain: hypothalamus, Hypothalamus, read-out: 1TCM VT): 7.77 ± 0.35
Kp ([2]; brain: hypothalamus, Hypothalamus, read-out: 2TCM VT): 8.32 ± 0.57
Kp ([2]; brain: hypothalamus, Hypothalamus, read-out: Logan VT): 8.08 ± 0.44
Kp ([2]; brain: insula, Insula, read-out: 1TCM VT): 12.1 ± 1.08
Kp ([2]; brain: insula, Insula, read-out: 2TCM VT): 13.8 ± 1.42
Kp ([2]; brain: insula, Insula, read-out: Logan VT): 12.8 ± 1.32
Kp ([2]; brain: putamen, Putamen, read-out: 1TCM VT): 12.9 ± 1.54
Kp ([2]; brain: putamen, Putamen, read-out: 2TCM VT): 13.8 ± 2.27
Kp ([2]; brain: putamen, Putamen, read-out: Logan VT): 13.3 ± 1.81
Kp ([2]; brain: temporal gyrus, Temporal gyrus, read-out: 1TCM VT): 9.05 ± 0.41
Kp ([2]; brain: temporal gyrus, Temporal gyrus, read-out: 2TCM VT): 9.77 ± 1.02
Kp ([2]; brain: thalamus, Thalamus, read-out: 1TCM VT): 7.42 ± 0.36
Kp ([2]; brain: thalamus, Thalamus, read-out: 2TCM VT): 7.9 ± 0.74
Kp ([2]; brain: thalamus, Thalamus, read-out: Logan VT): 7.87 ± 0.55
